How the values were obtained:
[1] = xn = mol fraction of the nth substance listed; settings: 300 kPa, Fluid (supercritical or subcritical phases)
[2] = 300 kPa, Fluid (supercritical or subcritical phases)

O=C=O [carbon dioxide] + [HH]
[1], x2 = 0
Settings	viscosity [mPa·s]
500 K	0.0236
800 K	0.0356
1100 K	0.0452

[HH] [hydrogen] + O=C=O
viscosity [mPa·s], [1]
Settings	x1 = 0.15	x1 = 0.3	x1 = 0.5	x1 = 0.7	x1 = 0.85	x1 = 1
500 K	0.0238	0.0241	0.0236	0.0215	0.0192	0.0129
800 K	0.0351	0.0346	0.0336	0.0303	0.0269	0.0179
1100 K	0.0438	0.0431	0.0422	0.0403	0.0346	0.0226

[HH] [hydrogen]
[2]
Settings	viscosity [mPa·s]
500 K	0.0129
800 K	0.0179
1100 K	0.0226

O=C=O [carbon dioxide]
[2]
Settings	viscosity [mPa·s]
500 K	0.0236
800 K	0.0356
1100 K	0.0452
